Experimental data taken from paper PMC9280334 (Frontiers in Chemistry, 2022).

What was measured:
[1] = molecular target: T1, Aβ1-42 (Homo sapiens, UniProt P05067); test: Inhibition of self-induced Aβ1-42 aggregation (ThT assay); format: biochemical; conditions: Aβ1-42 20 μM, compound 100 μM, after 48 h, ThT, mean ± SEM of three experiments
T1 construct: Amyloid-β protein 1–42 (Sigma A9810) was dissolved; purchased Sigma A9810
Protocol: Inhibitory properties of the compounds on self-induced and AChE-induced aggregation of amyloid-β protein 1–42 was determined using a thioflavin T (ThT)-based fluorescence assay with slight modifications ([Levine, 1993]). The ThT excitation/emission was measured at 448 nm/490 nm at 48 h using a SpectraMax® Microplate Reader. Amyloid-β protein 1–42 (Sigma A9810) was dissolved in Phosphate Buffer Saline pH 7.4 (PBS, HyClone Thermo Scientific) containing ammonium hydroxide (1%). Aβ1-42 (50 μM) was incubated for 24 h at 37°C for prefibrillation.
To determine AChE-induced Aβ1-42 aggregation, Aβ1-42 (20 μl) ± human recombinant AChE (0.01 u/ml, Sigma C1682) were added to […] of PBS buffer pH 7.4 including 0.15 M NaCl and 20 μM thioflavin T (ThT). The mixture was incubated at 37°C in the absence and presence of the compounds (100 μM) and the fluorescence intensities were determined. Due to the presence of the tested compounds, inhibition of self- or AChE-induced aggregation percent was determined by the following calculation: [100-((IFi/IFo) × 100)] where IFi and IFo are the fluorescence intensities obtained for Aβ ± AChE in the presence and in the absence of inhibitors.

[2] = molecular target: T2, BuChE (equine serum) (Equus caballus, UniProt P81908); test: biochemical; format: biochemical; conditions: equine serum BuChE; mean ± SEM of three experiments
T2 construct: purchased Sigma-Aldrich
Protocol: (§1) AChE, BuChE, 5,5'-dithiobis (2-nitrobenzoic acid) (DTNB), acetyl- and butyrylthiocholine iodides were purchased from Sigma-Aldrich. Five different concentrations of the corresponding compounds in ethanol-DMSO (9:1) were prepared. […] After 3 min of incubation, the substrate solution (acetylthiocholine iodide or butyrylthiocholine iodide, 0.05 M) was added and then incubated for at least 1 min at 25°C. […] The inhibition curve was obtained by plotting the percentage of enzyme activity (100% for the reference) versus the logarithm of the tested compound concentration. […]

[3] = molecular target: T3, AChE (electric eel) (Electrophorus electricus, UniProt O42275); test: biochemical; format: biochemical; conditions: electric eel AChE; mean ± SEM of three experiments
T3 construct: purchased Sigma-Aldrich
Protocol: as §1

[4] = test system: PC12 cells; test: Neuroprotection against H2O2-induced cell death in PC12 cells (MTT); format: cell-based; conditions: H2O2 (150 μM)-induced injury, mean ± SEM
Protocol: The cell viability was measured using MTT [3-(4,5-dimethylthiazol-2-yl)-2,5-diphenyl tetrazolium bromide] assay ([Datki et al., 2003]). PC12 cells (from the Iranian Biological Resource Center, IBRC) received different treatments, including no treatment (control), 150 μM H2O2 alone, or 150 μM H2O2 in combination with 0.1–50 μM of the tested compound. The cells were seeded at 1 × 10^4 cells/well and incubated at 37 °C under a 5% CO2 atmosphere for 24 h, then treated with the tested compound and incubated for 3 h. Next, the cells were exposed to H2O2 for 2 h again. The MTT solution (20 μl, 5 mg/ml) was next replaced with the medium and incubated for 4 h. 100 μl of DMSO was added to dissolve the formazan precipitate. Absorbance was then measured at 570 nm using a multi-mode plate reader (Biotek, Winooski, VT). Cell viability is expressed as a percentage relative to the untreated control.

T3 sequence (O42275 24-633): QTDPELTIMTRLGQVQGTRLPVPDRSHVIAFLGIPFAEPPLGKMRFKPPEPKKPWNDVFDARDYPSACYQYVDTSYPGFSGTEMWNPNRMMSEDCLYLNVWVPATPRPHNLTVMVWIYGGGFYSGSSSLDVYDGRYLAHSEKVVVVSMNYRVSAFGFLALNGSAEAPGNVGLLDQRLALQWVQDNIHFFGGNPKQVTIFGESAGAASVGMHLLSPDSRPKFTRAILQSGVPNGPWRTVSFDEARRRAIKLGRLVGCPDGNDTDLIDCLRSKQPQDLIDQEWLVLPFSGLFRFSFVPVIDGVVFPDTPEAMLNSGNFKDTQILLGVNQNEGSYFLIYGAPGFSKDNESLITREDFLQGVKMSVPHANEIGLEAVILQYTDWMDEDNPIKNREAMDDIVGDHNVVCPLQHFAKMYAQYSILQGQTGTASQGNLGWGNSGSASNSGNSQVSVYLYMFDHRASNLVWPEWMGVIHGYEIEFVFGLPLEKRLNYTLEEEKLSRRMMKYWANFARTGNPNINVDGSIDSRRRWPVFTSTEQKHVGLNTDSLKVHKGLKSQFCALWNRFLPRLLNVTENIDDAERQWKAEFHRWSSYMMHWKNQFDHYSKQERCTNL
T2 sequence (P81908 whole entry): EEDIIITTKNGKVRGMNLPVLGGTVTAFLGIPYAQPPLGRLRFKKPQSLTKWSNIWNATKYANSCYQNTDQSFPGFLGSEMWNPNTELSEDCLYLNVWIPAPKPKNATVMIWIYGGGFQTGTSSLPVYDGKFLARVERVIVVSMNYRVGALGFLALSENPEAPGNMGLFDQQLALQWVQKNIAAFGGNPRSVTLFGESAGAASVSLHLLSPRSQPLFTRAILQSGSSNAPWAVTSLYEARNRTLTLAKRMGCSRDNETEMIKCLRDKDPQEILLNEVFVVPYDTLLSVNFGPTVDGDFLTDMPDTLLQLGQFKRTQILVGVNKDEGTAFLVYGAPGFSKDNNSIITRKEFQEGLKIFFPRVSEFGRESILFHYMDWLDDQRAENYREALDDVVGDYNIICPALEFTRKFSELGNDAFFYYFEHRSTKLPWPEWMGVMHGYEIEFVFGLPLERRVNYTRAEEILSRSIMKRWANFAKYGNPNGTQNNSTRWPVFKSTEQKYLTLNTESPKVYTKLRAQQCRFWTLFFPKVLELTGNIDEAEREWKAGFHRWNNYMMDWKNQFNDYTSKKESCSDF
T1 sequence (P05067 672-713 limits assumed): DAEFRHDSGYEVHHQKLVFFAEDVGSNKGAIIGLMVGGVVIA

In the case of `COc1cc2c(cc1OC)C(=O)C(CC1CCN(Cc3ccccc3)CC1)C2` (stereo not drawn) [Donepezil, reference compound], the “Inhibition of self-induced Aβ aggregation” value [1] is reported as 30.8 ± 1.7%.
Compound `COc1cccc2cc(-c3ccc(OCCC[n+]4ccccc4)cc3)c(=O)oc12` [Compound 3d, 1-(3-(4-(8-Methoxy-2-oxo-2H-chromen-3-yl)phenoxy)propyl)pyridinium Bromide] has an IC50 [2] of 0.079 ± 0.009 µM and an IC50 [3] of 0.081 ± 0.004 µM.
`COc1ccc2oc(=O)c(-c3ccc(OCCC[n+]4ccccc4)cc3)cc2c1.[Br-]` [Compound 3b, 1-(3-(4-(6-Methoxy-2-oxo-2H-chromen-3-yl)phenoxy)propyl)pyridinium Bromide] was tested, and the IC50 [2] was 0.068 ± 0.006 µM, the IC50 [3] was 0.004 ± 0.001 µM and the “PC12 cell viability (% of control)” value ([4]; 0.1 μM compound) was 31.7 ± 1.4 % of control. The “PC12 cell viability (% of control)” value ([4]; 1 μM compound) was 37.6 ± 1.1 % of control, the “PC12 cell viability (% of control)” value ([4]; 5 μM compound) was 43.3 ± 0.9 % of control and the “PC12 cell viability (% of control)” value ([4]; 10 μM compound) was 45.4 ± 1.3 % of control. The “PC12 cell viability (% of control)” value ([4]; 20 μM compound) was 49.6 ± 0.9 % of control and the “PC12 cell viability (% of control)” value ([4]; 50 μM compound) was 54.3 ± 1.6 % of control.
`O=c1oc2ccc(Br)cc2cc1-c1ccc(OCCCC[n+]2ccccc2)cc1` [Compound 3k, 1-(4-(4-(6-Bromo-2-oxo-2H-chromen-3-yl)phenoxy)butyl)pyridinium Bromide] was tested, and the IC50 [2] was 0.092 ± 0.009 µM and the IC50 [3] was 0.04 ± 0.005 µM.
For `O=c1oc2ccccc2cc1-c1ccc(OCCCC[n+]2ccccc2)cc1.[Br-]` [Compound 3g, 1-(4-(4-(2-Oxo-2H-chromen-3-yl)phenoxy)butyl)pyridinium Bromide], the IC50 [2] was 0.091 ± 0.018 µM, the IC50 [3] was 0.007 ± 0.001 µM and the “PC12 cell viability (% of control)” value ([4]; 0.1 μM compound) was 30.2 ± 1.4 % of control. The “PC12 cell viability (% of control)” value ([4]; 1 μM compound) was 33.6 ± 1.2 % of control, the “PC12 cell viability (% of control)” value ([4]; 5 μM compound) was 36.6 ± 0.9 % of control and the “PC12 cell viability (% of control)” value ([4]; 10 μM compound) was 45.8 ± 0.3 % of control. For the same compound, the “PC12 cell viability (% of control)” value ([4]; 20 μM compound) was 48.7 ± 0.9 % of control and the “PC12 cell viability (% of control)” value ([4]; 50 μM compound) was 49.9 ± 0.9 % of control.
`O=c1oc2ccc([N+](=O)[O-])cc2cc1-c1ccc(OCCCC[n+]2ccccc2)cc1.[Br-]` [Compound 3l, 1-(4-(4-(6-Nitro-2-oxo-2H-chromen-3-yl)phenoxy)butyl)pyridinium Bromide] was tested, and the IC50 [2] was 0.059 ± 0.011 µM, the IC50 [3] was 0.003 ± 0.001 µM and the “PC12 cell viability (% of control)” value ([4]; 0.1 μM compound) was 23.7 ± 0.5 % of control. For the same compound, the “PC12 cell viability (% of control)” value ([4]; 1 μM compound) was 27.3 ± 1.2 % of control, the “PC12 cell viability (% of control)” value ([4]; 5 μM compound) was 33.5 ± 1.2 % of control and the “PC12 cell viability (% of control)” value ([4]; 10 μM compound) was 37.8 ± 1.0 % of control. The “PC12 cell viability (% of control)” value ([4]; 20 μM compound) was 51.6 ± 1.1 % of control and the “PC12 cell viability (% of control)” value ([4]; 50 μM compound) was 55.7 ± 2.0 % of control.
In the case of `O=c1oc2ccc(Br)cc2cc1-c1ccc(OCCC[n+]2ccccc2)cc1` [Compound 3e, 1-(3-(4-(6-Bromo-2-oxo-2H-chromen-3-yl)phenoxy)propyl)pyridinium Bromide], the IC50 [2] is reported as 0.033 ± 0.005 µM and the IC50 [3] is reported as 0.015 ± 0.003 µM.
For `COc1ccc2cc(-c3ccc(OCCCC[n+]4ccccc4)cc3)c(=O)oc2c1` [Compound 3i, 1-(4-(4-(7-Methoxy-2-oxo-2H-chromen-3-yl)phenoxy)butyl)pyridinium Bromide], the IC50 [2] was 0.046 ± 0.001 µM and the IC50 [3] was 0.144 ± 0.009 µM.
Compound `CN(C)c1cc[n+](CCCOc2ccc(-c3cc4ccccc4oc3=O)cc2)cc1` [Compound 3s, 4-(Dimethylamino)-1-(3-(4-(2-oxo-2H-chromen-3-yl)phenoxy)propyl)pyridin-1-ium Bromide] has an IC50 [2] of 0.034 ± 0.0026 µM and an IC50 [3] of 0.022 ± 0.0019 µM.
`CCc1ccc(C)[n+](CCCCCOc2ccc(-c3cc4cc(Br)ccc4oc3=O)cc2)c1` [Compound 3q, 1-(5-(4-(6-Bromo-2-oxo-2H-chromen-3-yl)phenoxy)pentyl)-5-ethyl-2-methylpyridin-1-ium Bromide] showed an IC50 [2] of 0.022 ± 0.0023 µM and an IC50 [3] of 0.019 ± 0.0016 µM.
In the case of `COc1ccc2cc(-c3ccc(OCCC[n+]4ccccc4)cc3)c(=O)oc2c1` [Compound 3c, 1-(3-(4-(7-Methoxy-2-oxo-2H-chromen-3-yl)phenoxy)propyl)pyridinium Bromide], the IC50 [2] is reported as 0.057 ± 0.01 µM and the IC50 [3] is reported as 0.007 ± 0.001 µM.
`COc1cccc2cc(-c3ccc(OCCCC[n+]4ccccc4)cc3)c(=O)oc12` [Compound 3j, 1-(4-(4-(8-Methoxy-2-oxo-2H-chromen-3-yl)phenoxy)butyl)pyridinium Bromide] was tested, and the IC50 [2] was 0.097 ± 0.019 µM and the IC50 [3] was 0.031 ± 0.005 µM.
For `O=c1oc2ccccc2cc1-c1ccc(OCCCCC[n+]2ccccc2)cc1` [Compound 3m, 1-(5-(4-(2-Oxo-2H-chromen-3-yl)phenoxy)pentyl)pyridinium Bromide], the IC50 [2] was 0.086 ± 0.01 µM and the IC50 [3] was 0.072 ± 0.008 µM.
`COc1ccc2oc(=O)c(-c3ccc(OCCCC[n+]4ccccc4)cc3)cc2c1` [Compound 3h, 1-(4-(4-(6-Methoxy-2-oxo-2H-chromen-3-yl)phenoxy)butyl)pyridinium Bromide] showed an IC50 [2] of 0.106 ± 0.008 µM and an IC50 [3] of 1 ± 0.037 µM.
In the case of `O=c1c(O)c(-c2ccc(O)c(O)c2)oc2cc(O)cc(O)c12` [Quercetin, reference compound], the “PC12 cell viability (% of control)” value ([4]; 0.1 μM compound) is reported as 37.7 ± 1.2 % of control, the “PC12 cell viability (% of control)” value ([4]; 1 μM compound) is reported as 44.2 ± 0.7 % of control and the “PC12 cell viability (% of control)” value ([4]; 5 μM compound) is reported as 50.7 ± 0.1 % of control. The “PC12 cell viability (% of control)” value ([4]; 10 μM compound) was 55.8 ± 0.3 % of control, the “PC12 cell viability (% of control)” value ([4]; 20 μM compound) was 59.6 ± 0.8 % of control and the “PC12 cell viability (% of control)” value ([4]; 50 μM compound) was 61.0 ± 0.8 % of control.
For `O=c1oc2ccc([N+](=O)[O-])cc2cc1-c1ccc(OCCCCC[n+]2ccccc2)cc1` [Compound 3o, 1-(5-(4-(6-Nitro-2-oxo-2H-chromen-3-yl)phenoxy)pentyl)pyridinium Bromide], the IC50 [2] was 0.027 ± 0.002 µM and the IC50 [3] was 0.022 ± 0.004 µM.
In the case of `O=c1oc2ccc(Br)cc2cc1-c1ccc(OCCCCC[n+]2ccccc2)cc1` [Compound 3p, 1-(5-(4-(6-Bromo-2-oxo-2H-chromen-3-yl)phenoxy)pentyl)pyridinium Bromide], the IC50 [2] is reported as 0.049 ± 0.005 µM and the IC50 [3] is reported as 0.003 µM.
`COc1cccc2cc(-c3ccc(OCCCCC[n+]4ccccc4)cc3)c(=O)oc12` [Compound 3n, 1-(5-(4-(8-Methoxy-2-oxo-2H-chromen-3-yl)phenoxy)pentyl)pyridinium Bromide] showed an IC50 [2] of 0.123 ± 0.024 µM and an IC50 [3] of 0.015 ± 0.002 µM.
